The text below walks through data of article PMC4727778, “Synthesis and Antifungal Evaluation of Novel N-Alkyl Tetra- and Perhydroquinoline Derivatives” (Scientia Pharmaceutica, 2014).

Test [1] relates to human leukemia cell line (HL 60). Briefly: MTT test (cytotoxicity). The class given is cell-based. Conditions: HL 60 cell line, arithmetic average of three determinations. How it is done:
The cytotoxicity of the compounds 3a–d, 5a–d, and 8b was determined in an MTT test against a human leukemia cell line (HL 60).
(In general: Tetrazolium dyes change colour on reduction, which living cells bring about.)

In another test the test system is Yarrowia lipolytica. Briefly: Microdilution assay (MIC). The class given is cell-based. Conditions: hydrochlorides used, arithmetic average of two determinations, read-out: Minimal inhibitory concentration (MIC). How it is done:
(§1) For comparison, the N-undecylperhydroisoquinoline (C) was also tested here. For solubility reasons, the hydrochlorides were used in this assay (Table 2).
A general note: Broth dilution looks for growth in wells or tubes with falling amounts of substance.

The subject of a further test is Saccharomyces cerevisiae. Briefly: Microdilution assay (MIC). The class given is cell-based. Conditions: hydrochlorides used, arithmetic average of two determinations, read-out: Minimal inhibitory concentration (MIC). How it is done: as §1
Another test has as its system Candida glabrata. Briefly: Microdilution assay (MIC). The class given is cell-based. Conditions: Nakaseomyces glabratus, hydrochlorides used, arithmetic average of two determinations, read-out: Minimal inhibitory concentration (MIC). How it is done: as §1
Test [2] has as its target T1, Δ8,7-isomerase (Saccharomyces cerevisiae, UniProt P32352).
T1 construct: whole-cell assay for identification of the target enzyme in ergosterol biosynthesis; endogenous in cells; host or cells: Saccharomyces cerevisiae and Candida glabrata whole cells
As to the kind of experiment: Whole-cell assay for identification of the target enzyme in ergosterol biosynthesis (sterol pattern by GLC-MS). The class given is cell-based. To be noted: Candida glabrata and Saccharomyces cerevisiae incubated with test compound, lichesterol accumulation indicates Δ8,7-isomerase inhibition. How it is done: The compounds 5c and 7 were also subjected to our whole-cell assay for identification of the target enzyme in ergosterol biosynthesis. In this assay, the strains Candida glabrata and Saccharomyces cerevisiae were incubated with the test compounds, and after cell lysis, the changes in the sterol pattern were analyzed by GLC-MS. The accumulation of the Δ8(9)-sterol lichesterol (ergosta-5,8,22-trien-3β-ol) clearly indicates an inhibition of the enzyme Δ8,7-isomerase.

The subject of test [3] is Δ8,7-isomerase. Set-up: method as in PMID 24464607. To be noted: cited from earlier work.
Test [4] has as its system Candida glabrata (DSMZ-Nr.11226). As to the kind of experiment: Agar diffusion assay. It is filed as cell-based. Conditions: Nakaseomyces glabratus, C. glabrata, GI = growth inhibition, read-out: diameter of zones of total inhibition. How it is done:
(§2) The resulting compounds and known compounds, 1-undecylpiperidine (7) and 1-decylpiperazine (8a), as well as 1-methyl-4-undecylpiperazine (8b) (prepared in the same way), were tested in an agar diffusion assay against Gram-positive (Staphylococcus equorum (DSMZ-Nr. 20675), Streptococcus entericus (DSZM-Nr. 14446)) and Gram-negative bacteria (Escherichia coli (DSMZ-Nr. 426), Pseudomonas marginalis (DSMZ-Nr. 7527)), as well as the fungi Yarrowia lipolytica (DSMZ-Nr. 1345), Candida glabrata (DSMZ-Nr.11226), Aspergillus niger (DSMZ-Nr. 1988), and Hyphopichia burtonii (DSMZ-Nr. 70663) (Table 1).

The test system of test [5] is Hyphopichia burtonii (DSMZ-Nr. 70663). Briefly: Agar diffusion assay. The class given is cell-based. To be noted: H. burtonii, GI = growth inhibition, read-out: diameter of zones of total inhibition. How it is done:
as §2
(In general: Agar diffusion results depend on both activity and mobility in agar.)

In test [6] the test system is Yarrowia lipolytica (DSMZ-Nr. 1345). Briefly: Agar diffusion assay. It is filed as cell-based. To be noted: Y. lipolytica, GI = growth inhibition, read-out: diameter of zones of total inhibition. How it is done: as §2
Test [7] has as its system Escherichia coli (DSMZ-Nr. 426). As to the kind of experiment: Agar diffusion assay. To be noted: E. coli, GI = growth inhibition, read-out: diameter of zones of total inhibition. The class given is cell-based. How it is done:
as §2

In test [8] the test system is Streptococcus entericus (DSZM-Nr. 14446). As to the kind of experiment: Agar diffusion assay. It is filed as cell-based. Conditions: S. entericus, GI = growth inhibition, read-out: diameter of zones of total inhibition. How it is done:
as §2

Test [9] concerns Pseudomonas marginalis (DSMZ-Nr. 7527). Briefly: Agar diffusion assay. The class given is cell-based. To be noted: P. marginalis, GI = growth inhibition, read-out: diameter of zones of total inhibition. How it is done: as §2
Test [10] concerns Staphylococcus equorum (DSMZ-Nr. 20675). As to the kind of experiment: Agar diffusion assay. The class given is cell-based. To be noted: read-out: diameter of zones of total inhibition. How it is done:
as §2

The test system of test [11] is Aspergillus niger (DSMZ-Nr. 1988). Briefly: Agar diffusion assay. It is filed as cell-based. To be noted: A. niger, GI = growth inhibition, read-out: diameter of zones of total inhibition. How it is done: as §2
The test system of another test is Candida spp. Set-up: method as in earlier work. To be noted: printed in the Candida glabrata column; cited from earlier work.

Values after ≈ are worked out from the molar mass of the structure shown. Structures can show the parent of a compound that is named as a salt.

Broadly, the IC50 is the point on the concentration scale where inhibition reaches its midpoint.

T1 sequence (P32352 whole entry, stated change not applied): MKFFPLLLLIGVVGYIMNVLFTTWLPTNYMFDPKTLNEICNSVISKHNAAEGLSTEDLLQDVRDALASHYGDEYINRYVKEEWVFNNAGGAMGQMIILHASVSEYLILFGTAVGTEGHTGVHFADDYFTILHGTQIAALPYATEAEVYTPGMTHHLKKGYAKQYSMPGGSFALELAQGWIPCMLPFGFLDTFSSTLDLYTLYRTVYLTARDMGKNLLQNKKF

Consider `CCCCCCCCCN1CCC[C@@H]2CCCC[C@H]21` (racemic) [Compound 5a, (±)-trans-1-Nonyldecahydroquinoline hydrochloride], for which, in test [1], it took 22 µM to reach half-maximal inhibition (IC50). The MIC came to 7.5 µg/mL with Yarrowia lipolytica, 2.5 µg/mL in the test on Saccharomyces cerevisiae and 50 µg/mL with Candida glabrata.

The molecule `CCCCCCCCCCN1CCC[C@@H]2CCCC[C@H]21` (racemic) [Compound 5b, (±)-trans-1-Decyldecahydroquinoline hydrochloride] registered an IC50 in test [1] of 7 µM. Also, the MIC in the test on Yarrowia lipolytica is 2.5 µg/mL; with Saccharomyces cerevisiae it was 1 µg/mL; in the test on Candida glabrata, 37.5 µg/mL.

With `CCCCCCCCCCCN1CCC[C@@H]2CCCC[C@H]21` (racemic) [Compound 5c, (±)-trans-1-Undecyldecahydroquinoline hydrochloride], the “change in sterol pattern / target enzyme in ergosterol biosynthesis” value at Δ8,7-isomerase [2] is reported as “accumulation of lichesterol”; at Δ8,7-isomerase [2] (listed as N-undecylperhydroquinoline), “inhibitor of Δ8,7-isomerase”. In [1], this molecule yielded an IC50 of 7 µM. In addition, the MIC in the test with Yarrowia lipolytica is 5 µg/mL; in the test on Saccharomyces cerevisiae, 0.25 µg/mL; in the test on Candida glabrata it was 25 µg/mL.

For the molecule `CCCCCCCCCCCCN1CCC[C@@H]2CCCC[C@H]21` (racemic) [Compound 5d, (±)-trans-1-Dodecyldecahydroquinoline hydrochloride], in [1], the IC50 came out at 6 µM. Further, the MIC with Yarrowia lipolytica is 2.5 µg/mL; with Saccharomyces cerevisiae, 2.5 µg/mL; in the test on Candida glabrata, 5 µg/mL.

For the molecule `CCCCCCCCCCCN1CC[C@H]2CCCC[C@@H]2C1` (relative stereo) [C, N-n-undecyl-trans-decahydroisoquinoline, reference compound], the “antifungal mechanism (enzyme inhibited)” value with Δ8,7-isomerase [3] is “potent antifungal inhibiting the enzyme Δ8,7-isomerase”. Besides, the MIC in the test with Yarrowia lipolytica turned out to be 1.75 µg/mL (≈ 5.96 µM); with Saccharomyces cerevisiae, 0.1 µg/mL (≈ 0.341 µM); in the test on Candida glabrata, 5 µg/mL (≈ 17 µM).

On to `CCCCCCCCCCCN1CCCCC1` [Compound 7, 1-undecylpiperidine, reference compound], for which the zone of inhibition at 50 µg/disc came to 8 mm in [4]; 12 mm in [5]; 22 mm in [6]; 7 mm in test [7]; 17 mm in test [8]; 8 mm in [9]. Also, the zone of inhibition at 50 µg/disc in [10] was determined as 13 mm; in test [11], 0 mm. In addition, the “change in sterol pattern / target enzyme in ergosterol biosynthesis” value on Δ8,7-isomerase [2] is reported as “accumulation of lichesterol”. Further, the MIC in the test with Yarrowia lipolytica is 7.5 µg/mL (≈ 31.3 µM); in the test on Saccharomyces cerevisiae, 1.75 µg/mL (≈ 7.31 µM); in the test with Candida glabrata, 12.5 µg/mL (≈ 52.2 µM).

For `CCCCCCCCCCCN1CCN(C)CC1` [Compound 8b, 1-methyl-4-undecylpiperazine, reference compound], the zone of inhibition at 50 µg/disc in test [4] came to 11 mm; in test [5] it was 14 mm; in test [6] it was 25 mm; in test [7] it was 10 mm; in test [8] it was 15 mm; in test [9] it was 15 mm. Further, the results for the zone of inhibition at 50 µg/disc in [10] and in test [11] were 18 mm and 12 mm, respectively. Also, in test [1], the IC50 was 46 µM. The MIC with Yarrowia lipolytica came out at 10 µg/mL (≈ 39.3 µM); in the test with Saccharomyces cerevisiae it was 50 µg/mL (≈ 196 µM); in the test on Candida glabrata it was 25 µg/mL (≈ 98.2 µM).

As for `Clc1ccccc1C(c1ccccc1)(c1ccccc1)n1ccnc1` [clotrimazole, reference compound], the zone of inhibition at 50 µg/disc in test [4] amounted to 13 mm; in test [5] it was 25 mm; in test [6], 15 mm; in [11] it was 15 mm. Also, in the test on Candida spp., the “MIC90 Candida spp.” value is 1 (MIC90 Candida spp.) [17] µg/mL.

Regarding `OC(Cn1cncn1)(Cn1cncn1)c1ccc(F)cc1F` [fluconazole], the “MIC90 Candida spp.” value in the test with Candida spp. was 32 (MIC90 Candida spp.) [17] µg/mL.

Turning to nystatine B, the “MIC90 Candida spp.” value in the test on Candida spp. is 4 (MIC90 Candida spp.) [17] µg/mL.
